Assay results as given in the NIST ThermoML archive (doi:10.1016/j.jct.2017.02.022).

How the values were obtained:
[1] = xn = mol fraction of the nth substance listed; details: 101.3 kPa, Liquid; for speed of sound: Frequency=3 MHz, Sing-around technique in a fixed-path interferometer; for mass density: Vibrating tube method
[2] = refractive index (Na D-line) (dimensionless); xn = mol fraction of the nth substance listed; details: 101.3 kPa, Liquid, Standard Abbe refractometry

COS(=O)(=O)[O-].Cn1cc[n+](C)c1 [1,3-dimethylimidazolium methylsulfate] + CCCCO
Details	mass density, [1] [kg/m3]	refractive index, [2]	speed of sound, [1] [m/s]
298 K, x1 = 0.063	861	1.405	1263
298 K, x1 = 0.221	982	1.421	1357
298 K, x1 = 0.432	1108	1.443	1500
298 K, x1 = 0.64	1205	1.46	1617
298 K, x1 = 0.781	1258	1.47	1688
298 K, x1 = 0.927	1307	1.479	1761
298 K, x1 = 1	1329	1.483	1811
303 K, x1 = 0.063	857	1.401	1246
303 K, x1 = 0.221	977	1.418	1341
303 K, x1 = 0.432	1102	1.439	1485
303 K, x1 = 0.64	1198	1.457	1602
303 K, x1 = 0.781	1252	1.468	1675
303 K, x1 = 0.927	1300	1.477	1748
303 K, x1 = 1	1322	1.481	1799
308 K, x1 = 0.063	852	1.398	1229
308 K, x1 = 0.221	972	1.414	1325
308 K, x1 = 0.432	1097	1.435	1469
308 K, x1 = 0.64	1193	1.454	1587
308 K, x1 = 0.781	1248	1.465	1661
308 K, x1 = 0.927	1297	1.475	1735
308 K, x1 = 1	1319	1.48	1787
313 K, x1 = 0.063	848	1.395	1213
313 K, x1 = 0.221	967	1.41	1309
313 K, x1 = 0.432	1092	1.431	1454
313 K, x1 = 0.64	1189	1.45	1572
313 K, x1 = 0.781	1243	1.461	1647
313 K, x1 = 0.927	1293	1.472	1722
313 K, x1 = 1	1315	1.479	1775

COS(=O)(=O)[O-].Cn1cc[n+](C)c1 [1,3-dimethylimidazolium methylsulfate] + CCCCCO
Details	mass density, [1] [kg/m3]	refractive index, [2]	speed of sound, [1] [m/s]
298 K, x1 = 0.1	884	1.417	1311
298 K, x1 = 0.35	1041	1.439	1448
298 K, x1 = 0.54	1140	1.454	1552
298 K, x1 = 0.661	1195	1.463	1618
298 K, x1 = 0.79	1250	1.471	1672
298 K, x1 = 0.931	1304	1.479	1751
298 K, x1 = 1	1329	1.483	1811
303 K, x1 = 0.1	879	1.416	1295
303 K, x1 = 0.35	1035	1.438	1432
303 K, x1 = 0.54	1134	1.452	1536
303 K, x1 = 0.661	1189	1.461	1603
303 K, x1 = 0.79	1243	1.469	1659
303 K, x1 = 0.931	1298	1.477	1738
303 K, x1 = 1	1322	1.481	1799
308 K, x1 = 0.1	875	1.414	1278
308 K, x1 = 0.35	1031	1.436	1417
308 K, x1 = 0.54	1129	1.451	1521
308 K, x1 = 0.661	1185	1.459	1588
308 K, x1 = 0.79	1239	1.467	1645
308 K, x1 = 0.931	1294	1.476	1725
308 K, x1 = 1	1319	1.48	1787
313 K, x1 = 0.1	871	1.412	1261
313 K, x1 = 0.35	1026	1.433	1401
313 K, x1 = 0.54	1125	1.448	1506
313 K, x1 = 0.661	1181	1.456	1574
313 K, x1 = 0.79	1235	1.465	1631
313 K, x1 = 0.931	1290	1.474	1713
313 K, x1 = 1	1315	1.479	1775

CCn1cc[n+](C)c1.COS(=O)(=O)[O-] [1-ethyl-3-methylimidazolium methylsulfate] + CCCCO
Details	mass density, [1] [kg/m3]	refractive index, [2]	speed of sound, [1] [m/s]
298 K, x1 = 0.041	843	1.403	1260
298 K, x1 = 0.219	976	1.424	1372
298 K, x1 = 0.417	1087	1.442	1504
298 K, x1 = 0.571	1156	1.454	1593
298 K, x1 = 0.731	1214	1.464	1662
298 K, x1 = 0.909	1268	1.475	1729
298 K, x1 = 1	1292	1.48	1762
303 K, x1 = 0.041	839	1.401	1243
303 K, x1 = 0.219	972	1.422	1356
303 K, x1 = 0.417	1083	1.44	1488
303 K, x1 = 0.571	1152	1.452	1578
303 K, x1 = 0.731	1210	1.462	1648
303 K, x1 = 0.909	1264	1.473	1716
303 K, x1 = 1	1289	1.479	1750
308 K, x1 = 0.041	835	1.398	1226
308 K, x1 = 0.219	967	1.419	1340
308 K, x1 = 0.417	1078	1.437	1473
308 K, x1 = 0.571	1147	1.449	1563
308 K, x1 = 0.731	1206	1.461	1634
308 K, x1 = 0.909	1261	1.472	1702
308 K, x1 = 1	1285	1.478	1739
313 K, x1 = 0.041	830	1.395	1209
313 K, x1 = 0.219	963	1.416	1324
313 K, x1 = 0.417	1074	1.435	1457
313 K, x1 = 0.571	1143	1.447	1548
313 K, x1 = 0.731	1202	1.459	1620
313 K, x1 = 0.909	1257	1.47	1689
313 K, x1 = 1	1282	1.476	1727

COS(=O)(=O)[O-].Cn1cc[n+](C)c1 [1,3-dimethylimidazolium methylsulfate] + CCCO
Details	mass density, [1] [kg/m3]	refractive index, [2]	speed of sound, [1] [m/s]
298 K, x1 = 0.039	843	1.389	1225
298 K, x1 = 0.208	995	1.413	1348
298 K, x1 = 0.382	1107	1.434	1481
298 K, x1 = 0.561	1193	1.452	1605
298 K, x1 = 0.702	1246	1.464	1684
298 K, x1 = 0.912	1307	1.477	1773
298 K, x1 = 1	1329	1.483	1811
303 K, x1 = 0.039	839	1.387	1208
303 K, x1 = 0.208	989	1.41	1332
303 K, x1 = 0.382	1100	1.432	1465
303 K, x1 = 0.561	1186	1.45	1590
303 K, x1 = 0.702	1239	1.461	1670
303 K, x1 = 0.912	1301	1.476	1760
303 K, x1 = 1	1322	1.481	1799
308 K, x1 = 0.039	834	1.385	1191
308 K, x1 = 0.208	984	1.408	1316
308 K, x1 = 0.382	1095	1.429	1450
308 K, x1 = 0.561	1181	1.447	1575
308 K, x1 = 0.702	1234	1.459	1656
308 K, x1 = 0.912	1297	1.474	1747
308 K, x1 = 1	1319	1.48	1787
313 K, x1 = 0.039	830	1.382	1175
313 K, x1 = 0.208	979	1.404	1300
313 K, x1 = 0.382	1090	1.426	1434
313 K, x1 = 0.561	1176	1.444	1561
313 K, x1 = 0.702	1229	1.456	1642
313 K, x1 = 0.912	1293	1.472	1734
313 K, x1 = 1	1315	1.479	1775

CCn1cc[n+](C)c1.COS(=O)(=O)[O-] [1-ethyl-3-methylimidazolium methylsulfate] + CCCCCO
Details	mass density, [1] [kg/m3]	refractive index, [2]	speed of sound, [1] [m/s]
298 K, x1 = 0.05	849	1.413	1291
298 K, x1 = 0.284	999	1.435	1425
298 K, x1 = 0.459	1089	1.448	1527
298 K, x1 = 0.613	1157	1.458	1603
298 K, x1 = 0.768	1216	1.468	1662
298 K, x1 = 0.922	1268	1.476	1721
298 K, x1 = 1	1292	1.48	1762
303 K, x1 = 0.05	845	1.412	1274
303 K, x1 = 0.284	994	1.434	1409
303 K, x1 = 0.459	1085	1.447	1511
303 K, x1 = 0.613	1153	1.457	1588
303 K, x1 = 0.768	1212	1.466	1648
303 K, x1 = 0.922	1265	1.475	1708
303 K, x1 = 1	1289	1.479	1750
308 K, x1 = 0.05	841	1.411	1258
308 K, x1 = 0.284	990	1.432	1393
308 K, x1 = 0.459	1081	1.445	1496
308 K, x1 = 0.613	1149	1.455	1573
308 K, x1 = 0.768	1208	1.465	1634
308 K, x1 = 0.922	1261	1.473	1695
308 K, x1 = 1	1285	1.478	1739
313 K, x1 = 0.05	837	1.409	1241
313 K, x1 = 0.284	986	1.43	1377
313 K, x1 = 0.459	1077	1.443	1480
313 K, x1 = 0.613	1145	1.453	1559
313 K, x1 = 0.768	1205	1.463	1620
313 K, x1 = 0.922	1258	1.472	1682
313 K, x1 = 1	1282	1.476	1727
